Experimental findings from ChEMBL document CHEMBL1201862, “PubChem BioAssay data set” (2004) are described below.

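Step 1: Grow cells in 96-well plates. Step 2: Expose to compound for 48 hours at 5 concentrations. Step 3: Interpolate endpoints linearly; if unreached, use highest concentration. Abbreviation: GI50, concentration required for 50% inhibition of growth.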 Activity calls are given as the source filed them. Rule as the data show it: active = GI50 up to about 1.1 µM and inactive = higher. Where only a bound is given, the exact number is not on record here.

Holding throughout (assay): NCI-60 cell line screen, 48 h
In assay [1] the test system is DU-145.
Assay [2] deals with COLO 205.
Assay [3] deals with ACHN.
For assay [4], the system named is SK-MEL-2.
Assay [5] relates to SW-620.
Assay [6] concerns OVCAR-5.
Assay [7] relates to MOLT-4.
In assay [8] the test system is KM12.
Assay [9] concerns OVCAR-4.
For assay [10], the system named is NCI/ADR-RES.
For assay [11], the system named is CAKI-1.
For assay [12], the system named is SF-268.
The test system of assay [13] is SF-295.
Assay [14] deals with U-251.
Assay [15] concerns UACC-257.
The subject of assay [16] is Malme-3M.
The subject of assay [17] is CCRF-CEM.
Assay [18] deals with MCF7.
The subject of assay [19] is BT-549.
Assay [20] relates to IGROV-1.

For the molecule `C[N+](C)(C)/N=C\c1ccc(O)c(O)c1`, the GI50 in [1], in assay [2], in assay [3], in [4], in assay [5] and in assay [6] was > 100 µM (inactive) throughout. For the same molecule, the GI50 in assay [7], in assay [8], in assay [9], in assay [10], in [11] and in assay [12] was > 100 µM (inactive) in each case. The GI50 in assay [13], in assay [14], in assay [15], in assay [16], in [17] and in assay [18] was > 100 µM (inactive) throughout. The GI50 in assay [19] and in assay [20] was > 100 µM (inactive) in each case.
For the molecule `C[C@H]1CC(=O)[C@@]2(O)C#C/C=C\C#C[C@@H]3Nc4c(cc(O)c5c4C(=O)c4ccccc4C5=O)[C@]24O[C@]314`, the GI50 is 0.00189 µM (active) in assay [1]; 0.0568 µM (active) in assay [2]; < 0.001 µM (active) in assay [3]; 0.478 µM (active) in assay [4]; 0.0153 µM (active) in assay [5]; 0.0685 µM (active) in assay [6]. Further, the GI50 is < 0.001 µM (active) in assay [7]; 0.0927 µM (active) in assay [8]; 0.271 µM (active) in [9]; 0.00914 µM (active) in assay [10]; < 0.001 µM (active) in [11]; 0.00313 µM (active) in assay [12]. Also, the GI50 is 0.0161 µM (active) in [13]; 0.00701 µM (active) in [14]; 0.00231 µM (active) in assay [15]; 0.01 µM (active) in assay [16]; 0.00106 µM (active) in assay [17]; < 0.001 µM (active) in assay [18]. Moreover, the results for the GI50 in [19] and in [20] were 0.0194 µM (active) and 0.16 µM (active), respectively.
As to `CC1=C(C)C(=O)C(C2=CC(=O)C=CC2=O)=C(C2=CC(=O)C=CC2=O)C1=O`, the GI50 was > 100 µM (inactive) in assay [1]; 56 µM (inactive) in assay [2]; 59.4 µM (inactive) in [3]; > 100 µM (inactive) in assay [4]; 28.4 µM (inactive) in [5]; > 58.9 µM (inactive) in assay [6]. The GI50 in [7] is 15.5 µM (inactive); in assay [8], 64.4 µM (inactive); in assay [9], 20.6 µM (inactive); in [10], > 100 µM (inactive); in [11] it was 25.2 µM (inactive); in [12] it was > 74.6 µM (inactive). For the same molecule, the GI50 in assay [13] is > 96.2 µM (inactive); in assay [14], 32.7 µM (inactive); in assay [15], > 67.1 µM (inactive); in assay [16], 66.1 µM (inactive); in assay [17], 14.1 µM (inactive); in assay [18], 26.4 µM (inactive). Besides, the GI50 in [19] was 86.9 µM (inactive); in assay [20], 21.4 µM (inactive).
In the case of `CCN(CC)CCNC(=O)c1ccc(I)cc1`, the GI50 in assay [1], in [2], in assay [3], in [4], in assay [5] and in assay [6] was > 100 µM (inactive) in each case. The GI50 was > 100 µM (inactive) in assay [7]; > 100 µM (inactive) in assay [8]; > 100 µM (inactive) in assay [9]; > 100 µM (inactive) in [10]; 60.4 µM (inactive) in assay [11]; > 100 µM (inactive) in assay [12]. In addition, the GI50 in assay [13] is > 100 µM (inactive); in assay [14], > 100 µM (inactive); in assay [15], > 100 µM (inactive); in [16], > 100 µM (inactive); in assay [17] it was 89.5 µM (inactive); in assay [18], > 100 µM (inactive). Also, the GI50 in assay [19] and in assay [20] was > 100 µM (inactive) in each case.
Regarding `COC(=O)C1(Cc2ccc(C)cc2)Cc2c(C)cccc2C1=O` (stereo not given), the GI50 in assay [1] was 15.3 µM (inactive); in assay [2] it was 12.1 µM (inactive); in assay [3] it was 26.5 µM (inactive); in assay [4] it was 12.9 µM (inactive); in assay [5] it was 10.9 µM (inactive); in assay [6], 24.6 µM (inactive). For the same molecule, the GI50 is 20 µM (inactive) in assay [7]; 6.75 µM (inactive) in assay [8]; 20.3 µM (inactive) in [9]; 14.9 µM (inactive) in [10]; 25.7 µM (inactive) in [11]; 21.8 µM (inactive) in [12]. The GI50 in [13] is 15.4 µM (inactive); in [14], 17.1 µM (inactive); in [15] it was 22.1 µM (inactive); in assay [16], 13 µM (inactive); in assay [17] it was 82 µM (inactive); in assay [18], 11.2 µM (inactive). The GI50 in [19] was 16.3 µM (inactive); in assay [20] it was 16.4 µM (inactive).
With `C=CC1(C)CCC2C(=CCC3C2(C)CC(O)C(O)C3(C)COC2OC(CO)C(O)C(O)C2O)C1` (stereo not given), the GI50 in assay [1], in assay [2], in assay [3], in [4], in [5] and in assay [6] was > 100 µM (inactive) each time. In addition, the GI50 is 68.1 µM (inactive) in assay [7]; > 100 µM (inactive) in [8]; > 100 µM (inactive) in assay [9]; > 100 µM (inactive) in assay [10]; > 100 µM (inactive) in assay [11]; > 100 µM (inactive) in assay [12]. Also, the GI50 was > 100 µM (inactive) in assay [13]; > 100 µM (inactive) in assay [14]; > 100 µM (inactive) in [15]; > 100 µM (inactive) in assay [16]; 46.1 µM (inactive) in assay [17]; > 100 µM (inactive) in assay [18]. For the same molecule, the GI50 in [19] and in [20] was > 100 µM (inactive) each time.
